Reference: ChEMBL document CHEMBL6134909 (Eur J Med Chem, 2025)

Tests used:
Influenza A virus = assay: Anti-viral activity against Influenza A virus H7N1 pseudotype infected in human A549 cells assessed as inhibition of viral entry incubated for 48 hrs by Neolite Reporter Gene Assay; assay type: functional, organism-based; settings: H7N1, A549, 48 h
[1] = Cytotoxicity against human A549 cells incubated for 48 hrs by CellTiter-Glo Luminescent Cell Viability Assay; assay type: toxicity, cell-based
[2] = Metabolic stability in human liver microsomes assessed as compound remaining at 2 to 10 uM measured after 60 mins in presence of NADPH by LC-MS/MS analysis; assay type: ADME, Microsome; settings: dose 2-10 µM, read-out: Stability
[3] = Metabolic stability in BALB/c mouse liver microsomes assessed as compound remaining at 2 to 10 uM measured after 60 mins in presence of NADPH by LC-MS/MS analysis; assay type: ADME, Microsome; settings: dose 2-10 µM, read-out: Stability
[4] = Metabolic stability in human liver microsomes assessed as compound remaining at 2 to 10 uM measured after 60 mins in absence of NADPH by LC-MS/MS analysis; assay type: ADME, Microsome; settings: dose 2-10 µM, read-out: Stability
[5] = Metabolic stability in BALB/c mouse liver microsomes assessed as compound remaining at 2 to 10 uM measured after 60 mins in absence of NADPH by LC-MS/MS analysis; assay type: ADME, Microsome; settings: dose 2-10 µM, read-out: Stability
[6] = Metabolic stability in human plasma at 2 uM measured after 60 mins by LC-MS/MS analysis; assay type: ADME, cell-free; settings: 1 h
[7] = Metabolic stability in mouse plasma at 2 uM measured after 60 mins by LC-MS/MS analysis; assay type: ADME, cell-free; settings: 1 h
[8] = Metabolic stability in human liver microsomes assessed as compound remaining at 2 to 10 uM measured after 60 mins in presence of furafylline/NADPH by LC-MS/MS analysis; assay type: ADME, Microsome; settings: with furafylline, dose 2-10 µM, read-out: Stability
[9] = Metabolic stability in human liver microsomes assessed as compound remaining at 2 to 10 uM measured after 60 mins in presence of sulfaphenazole/NADPH by LC-MS/MS analysis; assay type: ADME, Microsome; settings: with sulfaphenazole, dose 2-10 µM, read-out: Stability
[10] = Metabolic stability in human liver microsomes assessed as compound remaining at 2 to 10 uM measured after 60 mins in presence of quinidine/NADPH by LC-MS/MS analysis; assay type: ADME, Microsome; settings: with quinidine, dose 2-10 µM, read-out: Stability
[11] = Metabolic stability in human liver microsomes assessed as compound remaining at 2 to 10 uM measured after 60 mins in presence of ketoconazole/NADPH by LC-MS/MS analysis; assay type: ADME, Microsome; settings: with ketoconazole, dose 2-10 µM, read-out: Stability
[12] = Metabolic stability in BALB/c mouse liver microsomes assessed as compound remaining at 2 to 10 uM measured after 60 mins in presence of furafylline/NADPH by LC-MS/MS analysis; assay type: ADME, Microsome; settings: with furafylline, dose 2-10 µM, read-out: Stability
[13] = Metabolic stability in BALB/c mouse liver microsomes assessed as compound remaining at 2 to 10 uM measured after 60 mins in presence of sulfaphenazole/NADPH by LC-MS/MS analysis; assay type: ADME, Microsome; settings: with sulfaphenazole, dose 2-10 µM, read-out: Stability
[14] = Metabolic stability in BALB/c mouse liver microsomes assessed as compound remaining at 2 to 10 uM measured after 60 mins in presence of quinidine/NADPH by LC-MS/MS analysis; assay type: ADME, Microsome; settings: with quinidine, dose 2-10 µM, read-out: Stability
[15] = Metabolic stability in BALB/c mouse liver microsomes assessed as compound remaining at 2 to 10 uM measured after 60 mins in presence of ketoconazole/NADPH by LC-MS/MS analysis; assay type: ADME, Microsome; settings: with ketoconazole, dose 2-10 µM, read-out: Stability

SMILES | EC50 (Influenza A virus) [µM] | CC50 at 48 h [1] [µM] | also measured
Cc1cc(C)n2c(NC3CCCCC3)c(-c3ccc(F)c(F)c3)nc2n1 | 1.3 | > 25 | 
c1ccc(-c2nc3ncccn3c2NC2CCCC2)cc1 | 0.35 | > 100 | 
CN1CCN(c2ccc(-c3nc4ncc(Cl)cn4c3NC3CCCCC3)cc2F)CC1 | 1.49 | 31 | 
Cc1cc(C)n2c(NC3CCCCC3)c(-c3ccc(Cl)s3)nc2n1 | 2.26 | 14.8 | 
Fc1ccc(-c2nc3ncc(Cl)cn3c2NC2CCCC2)cc1F | 8.3 | 25 | 
CCOc1ccc(-c2nc3nc(C)cc(C)n3c2NC2CCCCC2)cc1OC | 5.33 | > 25 | 
Cc1cc(C)n2c(NC3CCCCC3)c(-c3ccc(Cl)c(Cl)c3)nc2n1 | 2.51 | 12 | 
Oc1ccc(-c2nc3ncc(Br)cn3c2NC2CCCCCC2)cc1 | 3.65 | 45 | 
Fc1ccc(-c2nc3ncccn3c2NC2CCCCC2)cc1 | 0.04 | > 100 | 
COCOc1cc(F)c(-c2nc3ncc(Cl)cn3c2NC2CCCCC2)c(OC)c1 | 6.65 | 48 | 
Fc1ccc(-c2nc3ncccn3c2NC2CCCCC2)c(F)c1 | 0.09 | 72 | remaining at 1 h, up to 10 µM [2]: 33.4%; remaining at 1 h, up to 10 µM [3]: 22.8%; remaining at 1 h, up to 10 µM [4]: 104%; remaining at 1 h, up to 10 µM [5]: 108%; Stability [6]: Stable; Stability [7]: Stable
COCOc1ccc(-c2nc3ncccn3c2NC2CCCCCC2)cc1 | 0.16 | 52 | 
Cc1cc(C)n2c(NC3CCCCC3)c(-c3cccc4c3OC(F)(F)O4)nc2n1 | 6.27 | > 25 | 
Fc1cccc(-c2nc3ncccn3c2NC2CCCCC2)c1 | 0.39 | > 25 | 
Fc1ccc(-c2nc3ncc(Cl)cn3c2NC2CCCCC2)cc1F | 0.26 | > 100 | Stability [6]: Stable; Stability [7]: Stable
COc1ccc(-c2nc3sccn3c2NC2CCCCC2)cc1 | 3.02 | 63.1 | 
COc1ccc(COc2ccc(-c3nc4ncccn4c3NC3CCCCC3)c(F)c2)cc1 | 2.1 | 39 | 
Cc1ccc(Cl)c(-c2nc3ncccn3c2NC2CCCCC2)c1F | 1.26 | 27 | 
Oc1ccc(-c2nc3ncc(Cl)cn3c2NC2CCCCCC2)cc1 | 1.09 | 50 | 
COc1cc(OC)cc(-c2nc3ncccn3c2NC2CCCCC2)c1 | 1.89 | 47 | 
CN1CCOc2cc(-c3nc4ncc(Cl)cn4c3NC3CCCCC3)ccc21 | 2.05 | > 100 | 
COCOc1ccc(-c2nc3ncc(Cl)cn3c2NC2CCCCCC2)cc1 | 0.74 | > 100 | remaining at 1 h, up to 10 µM [2]: 13.8%; remaining at 1 h, up to 10 µM [3]: 2.7%; remaining at 1 h, up to 10 µM [4]: 111%; remaining at 1 h, up to 10 µM [5]: 111%; Stability [6]: Stable; Stability [7]: Stable
Cc1cc(C)n2c(NC3CCCCC3)c(-c3nccs3)nc2n1 | 0.49 | > 25 | remaining at 1 h, up to 10 µM [2]: 19.8%; remaining at 1 h, up to 10 µM [3]: 29.4%; remaining at 1 h, up to 10 µM [4]: 101%; remaining at 1 h, up to 10 µM [5]: 99.9%; Stability [6]: Stable; Stability [7]: Stable
COCOc1ccc(-c2nc3ncccn3c2NC2CCCCC2)c(F)c1 | 0.08 | > 100 | remaining at 1 h, up to 10 µM [2]: 62.3%; remaining at 1 h, up to 10 µM [3]: 9.2%; remaining at 1 h, up to 10 µM [4]: 103%; remaining at 1 h, up to 10 µM [5]: 107%; Stability [6]: Stable; Stability [7]: Stable

SMILES | EC50 (Influenza A virus) [µM] | CC50 at 48 h [1] [µM] | also measured
Fc1ccc(-c2nc3ncccn3c2NC2CCCCC2)cc1N1CCOCC1 | 0.68 | > 25 | 
COCOc1ccc(-c2nc3ncc(Br)cn3c2NC2CCCCCC2)cc1 | 1.31 | > 100 | 
Cc1cc(C)n2c(NC3CCCCC3)c(-c3ccncc3)nc2n1 | 0.89 | > 25 | 
COCCOCOc1ccc(-c2nc3ncc(Cl)cn3c2NC2CCCCC2)cc1 | 0.86 | > 100 | 
Fc1cc(N2CCOCC2)ccc1-c1nc2ncc(Cl)cn2c1NC1CCCCC1 | 2.49 | 54 | 
Cc1cc(C)n2c(NC3CCCCC3)c(-c3cc(Br)ncc3F)nc2n1 | 3.28 | > 25 | 
Cc1cc(C)n2c(NC34CC5CC(C)(CC(C)(C5)C3)C4)c(-c3ccccc3)nc2n1 | 13 | 32 | 
Cc1cc(C)n2c(NC3CCCCC3)c(-c3ccc(F)c(N4CCOCC4)c3)nc2n1 | 4.57 | > 25 | 
COc1cc(-c2nc3nc(C)cc(C)n3c2NC2CCCCC2)ccc1F | 2.06 | > 25 | 
COCOc1cccc(-c2nc3ncc(Cl)cn3c2NC2CCCCC2)c1F | 3.04 | 51 | 
CC12CC3CC(C)(C1)CC(Nc1c(-c4ccc(F)c(F)c4)nc4ncccn14)(C3)C2 | 9.18 | 15.5 | 
Cc1cc(C)n2c(NC3CCCCC3)c(-c3ccccc3)nc2n1 | 2.55 | 59 | 
Cc1cc(C)n2c(NC3CCCCC3)c(-c3ccnc(Cl)c3)nc2n1 | 0.27 | > 25 | remaining at 1 h, up to 10 µM [2]: 0.5%; remaining at 1 h, up to 10 µM [3]: 6.8%; remaining at 1 h, up to 10 µM [4]: 114%; remaining at 1 h, up to 10 µM [5]: 105%; Stability [6]: Stable; Stability [7]: Stable
Clc1cnc2nc(-c3ccccc3)c(NC3CCCCC3)n2c1 | 13 | > 100 | 
COCOc1ccc(-c2nc3ncccn3c2NC2CCCCC2)cc1 | 0.09 | > 100 | remaining at 1 h, up to 10 µM [2]: 63.7%; remaining at 1 h, up to 10 µM [3]: 2.2%; remaining at 1 h, up to 10 µM [4]: 105%; remaining at 1 h, up to 10 µM [5]: 109%; Stability [6]: Stable; Stability [7]: Stable
Fc1ccc(-c2nc3ncc(Cl)cn3c2NC2CCCCCC2)cc1F | 0.12 | > 100 | remaining at 1 h, up to 10 µM [2]: 2.1%; remaining at 1 h, up to 10 µM [3]: 6.3%; remaining at 1 h, up to 10 µM [4]: 97%; remaining at 1 h, up to 10 µM [5]: 101%; Stability [6]: Stable; Stability [7]: Stable
COCOc1ccc(-c2nc3ncc(Cl)cn3c2NC2CCCCC2)c(F)c1 | 3.04 | 50 | remaining at 1 h, up to 10 µM [2]: 2.6%; remaining at 1 h, up to 10 µM [3]: 14.2%; remaining at 1 h, up to 10 µM [4]: 106%; remaining at 1 h, up to 10 µM [5]: 102%
Fc1cc(-c2nc3ncc(Cl)cn3c2NC2CCCCC2)ccc1N1CCCC1 | 12.5 | > 100 | 
CCN(c1c(-c2ccc(F)c(F)c2)nc2ncccn12)C1CCCCC1 | 12.8 | > 100 | remaining at 1 h, up to 10 µM [2]: 1%; remaining at 1 h, up to 10 µM [3]: 0%; remaining at 1 h, up to 10 µM [4]: 110%; remaining at 1 h, up to 10 µM [5]: 103%
CC(C)Oc1ccc(-c2nc3ncccn3c2NC2CCCCC2)cc1 | 1.45 | > 100 | 
CN1CCN(c2ccc(-c3nc4ncc(Cl)cn4c3NC3CCCCC3)c(F)c2)CC1 | 1.26 | 46 | 
Fc1cc(-c2nc3ncc(Cl)cn3c2NC2CCCCC2)ccc1N1CCOCC1 | 1.61 | > 100 | 
COc1ccc(-c2nc3ncccn3c2NC2CCCCC2)cc1 | 0.08 | > 1250 | remaining at 1 h, up to 10 µM [2]: 21.1%; remaining at 1 h, up to 10 µM [3]: 2.3%; remaining at 1 h, up to 10 µM [4]: 113%; remaining at 1 h, up to 10 µM [5]: 113%; remaining at 1 h, up to 10 µM [8]: 71%; remaining at 1 h, up to 10 µM [9]: 32%; remaining at 1 h, up to 10 µM [10]: 36.5%; remaining at 1 h, up to 10 µM [11]: 65.1%; remaining at 1 h, up to 10 µM [12]: 12.2%; remaining at 1 h, up to 10 µM [13]: 4.5%; remaining at 1 h, up to 10 µM [14]: 4.2%; remaining at 1 h, up to 10 µM [15]: 39.4%; Stability [6]: Stable; Stability [7]: Stable
Fc1ccc(-c2nc3ncccn3c2NC2CCCCC2)cc1F | 0.07 | > 100 | remaining at 1 h, up to 10 µM [2]: 2.2%; remaining at 1 h, up to 10 µM [3]: 2.7%; remaining at 1 h, up to 10 µM [4]: 113%; remaining at 1 h, up to 10 µM [5]: 114%; remaining at 1 h, up to 10 µM [8]: 19.7%; remaining at 1 h, up to 10 µM [9]: 7.2%; remaining at 1 h, up to 10 µM [10]: 10.9%; remaining at 1 h, up to 10 µM [11]: 48.8%; remaining at 1 h, up to 10 µM [12]: 7.3%; remaining at 1 h, up to 10 µM [13]: 5.5%; remaining at 1 h, up to 10 µM [14]: 5.3%; remaining at 1 h, up to 10 µM [15]: 51.7%; Stability [6]: Stable; Stability [7]: Stable
